Columns and labels:
[1] = molecular target: T1, human CB2 (Homo sapiens, UniProt P34972); assay: fluorescence-based membrane potential assay (GIRK activation) in AtT20 cells; assay type: cell-based; design: expressed in transfected cells; host or cells: mouse AtT20 FlpIn cells; settings: for hCB2 Emax ±SEM: normalised to 1 μM CP55,940
[2] = molecular target: T1, human CB2; assay: competitive radioligand binding assay, displacement of [3H]CP55,940, HEK cell membranes; design: expressed in transfected cells; host or cells: HEK293 cells, P2 membrane preparation; settings: [3H]CP55,940 1 nM
[3] = molecular target: T2, human CB1 (Homo sapiens, UniProt P21554); assay: as above; design: expressed in transfected cells; host or cells: HEK293 cells, P2 membrane preparation; settings: [3H]CP55,940 1 nM
[4] = molecular target: T2, human CB1; assay: fluorescence-based membrane potential assay (GIRK activation) in AtT20 cells; assay type: cell-based; design: expressed in transfected cells; host or cells: mouse AtT20 FlpIn cells; settings: for hCB1 Emax ±SEM: normalised to 1 μM CP55,940; for hCB1 maximal response at 10 μM (footnote d): highest concentration tested, curve not fitted
[5] = hCB2 EC50, AtT20-hCB2, value in brackets after pEC50
[6] = hCB2 Ki, value in brackets after pKi
[7] = hCB1 Ki, value in brackets after pKi
[8] = hCB1 EC50, AtT20-hCB1, value in brackets after pEC50
[9] = hCB1 pKi ±SEM, mean ± SEM of 3 to 6 independent experiments

T2 sequence (P21554 whole entry): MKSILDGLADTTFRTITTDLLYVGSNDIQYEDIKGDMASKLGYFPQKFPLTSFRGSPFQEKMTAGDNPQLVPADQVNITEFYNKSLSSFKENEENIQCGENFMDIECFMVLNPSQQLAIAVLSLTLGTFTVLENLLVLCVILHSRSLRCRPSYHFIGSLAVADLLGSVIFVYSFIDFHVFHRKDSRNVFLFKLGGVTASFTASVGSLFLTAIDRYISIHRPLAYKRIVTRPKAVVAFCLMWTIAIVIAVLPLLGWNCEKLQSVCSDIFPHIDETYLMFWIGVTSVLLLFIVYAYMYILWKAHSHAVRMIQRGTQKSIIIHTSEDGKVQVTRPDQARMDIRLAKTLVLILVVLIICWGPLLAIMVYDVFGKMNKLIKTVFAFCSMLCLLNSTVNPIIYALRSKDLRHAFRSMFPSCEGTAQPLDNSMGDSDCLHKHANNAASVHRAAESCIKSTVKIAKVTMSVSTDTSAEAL
T1 sequence (P34972 whole entry): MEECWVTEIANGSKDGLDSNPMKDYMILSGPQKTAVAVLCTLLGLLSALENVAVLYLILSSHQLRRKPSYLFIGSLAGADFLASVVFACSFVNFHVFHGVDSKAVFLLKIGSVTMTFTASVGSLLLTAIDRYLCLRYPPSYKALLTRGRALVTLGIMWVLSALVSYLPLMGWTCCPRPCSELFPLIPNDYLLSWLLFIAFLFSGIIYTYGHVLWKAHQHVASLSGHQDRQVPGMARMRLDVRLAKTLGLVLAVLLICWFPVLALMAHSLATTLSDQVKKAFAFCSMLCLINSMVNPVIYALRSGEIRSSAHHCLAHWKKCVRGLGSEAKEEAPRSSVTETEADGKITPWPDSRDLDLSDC

In the case of `CC(C)(C)[C@H](NC(=O)c1cn(CCCCC#N)c2ncccc12)C(N)=O` [Compound 15, (S)-N-(1-amino-3,3-dimethyl-1-oxobutan-2-yl)-1-(4-cyanobutyl)-1H-pyrrolo[2,3-b]pyridine-3-carboxamide], the “hCB2 Emax ±SEM” value ([1]; AtT20-hCB2) is reported as 96 ± 1 % CP55,940, the EC50 [1, 5] is reported as 6.09 nM and the melting point is reported as 93 to 94 °C. For the same compound, the Ki [2, 6] was 145 nM, the Ki [3, 7] was 155 nM and the “hCB1 Emax ±SEM” value ([4]; AtT20-hCB1) was 102 ± 4 % CP55,940. The EC50 [4, 8] was 14 nM.
With `N#CCCCCn1cc(C(=O)N[C@@H](Cc2ccccc2)C(N)=O)c2cccnc21` [Compound 16, (S)-N-(1-amino-1-oxo-3-phenylpropan-2-yl)-1-(4-cyanobutyl)-1H-pyrrolo[2,3-b]pyridine-3-carboxamide] the “hCB2 Emax ±SEM” value ([1]; AtT20-hCB2, listed as APP-4CN-BUT7AICA (16)) was 72 ± 3 % CP55,940, the EC50 [1, 5] was 232 nM and the EC50 ([1]; hCB2 pEC50 ±SEM, AtT20-hCB2) was 229 nM. For the same compound, the melting point was 182 to 184 °C, the Ki [2, 6] was 1860 nM and the Ki [3, 9] was over 10000 nM. The “hCB1 maximal response at 10 μM (footnote d)” value (from here on “hCB1 maximal response at 10 μM”) ([4]; AtT20-hCB1) was “submaximal agonist activity” and the “hCB1 maximal response at 10 μM” value ([4]; AtT20-hCB1, listed as APP-4CN-BUT7AICA (16)) was 25 ± 3^d % CP55,940.
In the case of `COC(=O)[C@@H](NC(=O)c1cn(CCCCC#N)c2ccccc12)C(C)(C)C` [Compound 18, methyl (S)-2-(1-(4-cyanobutyl)-1H-indole-3-carboxamido)-3,3-dimethylbutanoate], the “hCB2 Emax ±SEM” value ([1]; AtT20-hCB2) is reported as 101 ± 4 % CP55,940, the EC50 [1, 5] is reported as 4.04 nM and the melting point is reported as 124 to 127 °C. For the same compound, the Ki [2, 6] was 2.04 nM, the Ki [3, 7] was 6.61 nM and the “hCB1 Emax ±SEM” value ([4]; AtT20-hCB1) was 111 ± 3 % CP55,940. It also gave an EC50 [4, 8] of 2.68 nM.
For `COC(=O)[C@H](Cc1ccccc1)NC(=O)c1cn(CCCCC#N)c2ccccc12` [Compound 19, methyl (1-(4-cyanobutyl)-1H-indole-3-carbonyl)-L-phenylalaninate], the “hCB2 Emax ±SEM” value ([1]; AtT20-hCB2) was 105 ± 3 % CP55,940, the EC50 [1, 5] was 8.44 nM and the melting point was 144 to 146 °C. For the same compound, the Ki [2, 6] was 8.71 nM, the Ki [3, 7] was 85.1 nM and the “hCB1 Emax ±SEM” value ([4]; AtT20-hCB1) was 109 ± 3 % CP55,940. The EC50 [4, 8] was 35.5 nM.
In the case of `COC(=O)[C@H](Cc1ccccc1)NC(=O)c1nn(CCCCC#N)c2ccccc12` [Compound 21, methyl (1-(4-cyanobutyl)-1H-indazole-3-carbonyl)-L-phenylalaninate], the “hCB2 Emax ±SEM” value ([1]; AtT20-hCB2) is reported as 100 ± 2 % CP55,940, the EC50 [1, 5] is reported as 3.24 nM and the melting point is reported as 82.5 to 84.5 °C. For the same compound, the Ki [2, 6] was 3.8 nM, the Ki [3, 7] was 20.9 nM and the “hCB1 Emax ±SEM” value ([4]; AtT20-hCB1) was 115 ± 3 % CP55,940. The EC50 [4, 8] was 8.72 nM.
For `COC(=O)[C@H](Cc1ccccc1)NC(=O)c1cn(CCCCC#N)c2ncccc12` [Compound 24, methyl (1-(4-cyanobutyl)-1H-pyrrolo[2,3-b]pyridine-3-carbonyl)-L-phenylalaninate], the “hCB2 Emax ±SEM” value ([1]; AtT20-hCB2) was 104 ± 2 % CP55,940, the EC50 [1, 5] was 14.3 nM and the melting point was 102 to 105 °C. The Ki [2, 6] was 55 nM, the Ki [3, 7] was 380 nM and the “hCB1 Emax ±SEM” value ([4]; AtT20-hCB1) was 110 ± 5 % CP55,940. For the same compound, the EC50 [4, 8] was 189 nM and the EC50 ([4]; hCB1 pEC50 ±SEM, AtT20-hCB1, DNC = did not converge, ND = < 50% change in fluorescence at 10 μM) was 186 nM.
With `CC(C)[C@H](NC(=O)c1cn(CCCCF)c2ccccc12)C(N)=O` [Compound 25, (S)-N-(1-amino-3-methyl-1-oxobutan-2-yl)-1-(4-fluorobutyl)-1H-indole-3-carboxamide] the “hCB2 Emax ±SEM” value ([1]; AtT20-hCB2) was 97 ± 2 % CP55,940, the EC50 [1, 5] was 23.5 nM and the melting point was 225 to 227 °C. The Ki [2, 6] was 82 nM, the Ki [3, 7] was 1000 nM and the “hCB1 Emax ±SEM” value ([4]; AtT20-hCB1) was 108 ± 3 % CP55,940. It also gave an EC50 [4, 8] of 96.5 nM.
For `CC(C)(C)[C@H](NC(=O)c1cn(CCCCF)c2ccccc12)C(N)=O` [Compound 26, (S)-N-(1-amino-3,3-dimethyl-1-oxobutan-2-yl)-1-(4-fluorobutyl)-1H-indole-3-carboxamide], the “hCB2 Emax ±SEM” value ([1]; AtT20-hCB2) was 105 ± 4 % CP55,940, the EC50 [1, 5] was 44.1 nM and the melting point was 92 to 94 °C. The Ki [2, 6] was 8 nM, the Ki [3, 9] was 34.7 nM and the “hCB1 Emax ±SEM” value ([4]; AtT20-hCB1) was 110 ± 4 % CP55,940. It also gave an EC50 [4, 8] of 40.4 nM.
In the case of `NC(=O)[C@H](Cc1ccccc1)NC(=O)c1cn(CCCCF)c2ccccc12` [Compound 27, (S)-N-(1-amino-1-oxo-3-phenylpropan-2-yl)-1-(4-fluorobutyl)-1H-indole-3-carboxamide], the “hCB2 Emax ±SEM” value ([1]; AtT20-hCB2) is reported as 108 ± 8 % CP55,940, the EC50 [1, 5] is reported as 306 nM and the melting point is reported as 102 to 104 °C. For the same compound, the Ki [2, 6] was 170 nM, the Ki ([2]; hCB2 pKi ±SEM, mean ± SEM of 3 to 6 independent experiments) was 174 nM and the Ki [3, 7] was 3200 nM. The Ki [3, 9] was 3160 nM, the “hCB1 maximal response at 10 μM” value ([4]; AtT20-hCB1) was “submaximal agonist activity” and the “hCB1 maximal response at 10 μM” value ([4]; AtT20-hCB1, listed as APP-4F-BUTICA (27)) was 82 ± 4^d % CP55,940. For the same compound, the “hCB1 pEC50 ±SEM” value ([4]; AtT20-hCB1, DNC = did not converge, ND = < 50% change in fluorescence at 10 μM) was “DNC^b”.

Source: publication PMC9558907, “Synthesis and pharmacological evaluation of newly detected synthetic cannabinoid receptor agonists AB-4CN-BUTICA, MMB-4CN-BUTINACA, MDMB-4F-BUTICA, MDMB-4F-BUTINACA and their analogs” (Frontiers in Psychiatry, 2022)
